According to article PMC4707675 (ACS infectious diseases, 2015):
≈ marks a conversion by molar mass, not a printed value. Where “and” joins values, the source holds several entries; their conditions need not be identical. Identical values can stand only once. Like-named read-outs stand apart in the source and are kept apart here.

Legend:
[1] = format: in vitro ADME
[2] = tested on: intracellular Mtb growth in macrophages (THP-1 cells); assay: Intracellular assay of Mtb clearance in THP-1 cells; format: cell-based, Mycobacterium tuberculosis; settings: Mtb in THP-1 cells
Mtb strain H37Rv [3] = format: cell-based, Mycobacterium tuberculosis
Mtb DHFR [4] = biological target: T1, Mtb DHFR (Mycobacterium tuberculosis, UniProt P9WNX1); format: biochemical; settings: read-out: Enzyme IC50 Mtb; purified Mtb DHFR
Mtb DHFR [5] = biological target: T1, Mtb DHFR; settings: cited from earlier work; for inhibition of the Mtb DHFR enzyme: result in words
Mtb strain H37Rv [6] = settings: cited from earlier work; for activity against live Mtb: result in words; for MIC90 wt: wild-type Mtb, ref Nixon et al.[15]
human DHFR = biological target: T2, human DHFR (Homo sapiens, UniProt P00374); assay: Biochemical assay of human DHFR; settings: read-out: Enzyme IC50 Human; recombinant human DHFR
T2 sequence (P00374 1-187): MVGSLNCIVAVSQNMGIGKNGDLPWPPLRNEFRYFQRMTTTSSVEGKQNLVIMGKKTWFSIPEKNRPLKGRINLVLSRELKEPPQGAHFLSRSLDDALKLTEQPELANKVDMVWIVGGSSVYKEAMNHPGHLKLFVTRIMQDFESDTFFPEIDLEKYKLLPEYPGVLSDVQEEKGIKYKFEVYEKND

[7] = in vivo; cited from earlier work

T1 sequence (P9WNX1 whole entry): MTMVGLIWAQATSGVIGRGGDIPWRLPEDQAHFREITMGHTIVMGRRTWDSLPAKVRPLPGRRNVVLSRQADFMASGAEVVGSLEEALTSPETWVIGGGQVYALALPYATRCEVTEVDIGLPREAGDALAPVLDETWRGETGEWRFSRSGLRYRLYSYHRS

Structure (SMILES)	in vitro clearance in mouse microsomes [1] [mg/mL·g]	Tox50 HepG2 (HepG2) [µM]	MIC90 wt (Mtb strain H37Rv [3])	inhibition of the Mtb DHFR enzyme (Mtb DHFR [5])	activity against live Mtb (Mtb strain H37Rv [6])	also measured
N#Cc1ccc(Cn2ccc3c4c(N)nc(N)nc4ccc32)cc1 [PQD-1]	<0.5	10	0.5 µM and 0.50 µM			intracell MIC90 [2]: 0.7 µM; IC50 (Mtb DHFR [4]): 10.1 nM
COc1cc(NCc2ccc3nc(N)nc(N)c3c2C)cc(OC)c1OC [Trimetrexate]				strong inhibition	poor or no activity	MIC90 wt (Mtb strain H37Rv [6]): 6.3 µM (≈ 2.33 µg/mL); MIC90 wt (Mtb strain H37Rv [6]; listed as trimetrexate): 6.25 µM (≈ 2.31 µg/mL)
CC1(C)N=C(N)N=C(N)N1OCCCOc1cc(Cl)c(Cl)cc1Cl [WR99210]	<0.5	40	1 to 2 µM			cell health: membrane permeability (HepG2 human hepatocytes): 19 µM; cell health: mitochondrial potential (HepG2 human hepatocytes): 25 µM; cell health: nuclear morphology (HepG2 human hepatocytes): 10 µM; IC50 (Mtb DHFR [5]; read-out: Enzyme IC50 Mtb, ref Nixon et al.[15]): 14 nM; IC50 (human DHFR): 9 nM; toxicity in humans [7]: acute gastrointestinal toxicity
CN(Cc1cnc2nc(N)nc(N)c2n1)c1ccc(C(=O)N[C@@H](CCC(=O)O)C(=O)O)cc1 [methotrexate]					poor or no activity	
CCc1nc(N)nc(N)c1-c1ccc(Cl)cc1 [pyrimethamine]				strong inhibition	poor or no activity	
